Laboratory results as given in patent US20080255139A1, “Use Of 4- (4-Methylpiperazin-1-Ylmethyl)-N-[4-Methyl-3-(4-(Pyridin-3-Yl)Pyrimidin-2-Ylamino)Phenyl]-Benzamide to Inhibit the Tyrosine Kinase Receptor C-Fms” (priority 2004, published 2008).
“Also recorded” adds a separate entry of the source. Read-outs that look alike come from different tables or passages of the source.

Legend:
[1] = tested on: FDC-cfms cells (M-CSF dependent, c-fms); assay: cells; details: 12 h, read-out: inhibition of cell growth, M-CSF sole stimulation
[2] = tested on: M-CSF production by the cultured monocytes; assay: M-CSF ELISA on GM-CSF stimulated monocyte cultures; type: cell-based, human
Description: M-CSF ELISA. Monocytes are isolated from buffy coats from normal donors, as previously described, e.g. in Dewar A et al., 2003, Leukemia 17:1713-21. Monocyte cultures (1×10^5/mL) are established in 24 well plates in serum deprived medium (SDM; IMDM/1% BSA supplemented with 2 mM L-glutamine, 200 μg/mL transferrin, 10 μg/mL insulin (Actrapid®, Novo Nordisk), 10^−4 M β-mercaptoethanol, 50 μg/mL low density lipoproteins (Sigma)) and stimulated with 20 ng/mL GM-CSF. Supernatants are harvested at 24 h intervals for 5 days, and analysed for M-CSF using an R&D Systems DuoSete ELISA development system according to the manufacturers instructions.

FDC-cfms cells = details: for Cell count, IL-3, 12 H: 0 μM control 125433; for Cell count, IL-3, 24 H: 0 μM control 257726; for Cell count, IL-3, 48 H: 0 μM control 1123171
[3] = tested on: FDC-cfms cells (M-CSF dependent, c-fms); details: for Cell count, M-CSF, 12 H: 0 μM control 132174; for Cell count, M-CSF, 24 H: 0 μM control 310859; for Cell count, M-CSF, 48 H: 0 μM control 1453642

Cc1ccc(NC(=O)c2ccc(CN3CCN(C)CC3)cc2)cc1Nc1nccc(-c2cccnc2)n1 [Compound I, 4-(4-methylpiperazin-1-ylmethyl)-N-[4-methyl-3-(4-(pyridin-3-yl)pyrimidin-2-ylamino)phenyl]-benzamide]
inhibition at 5 µM [1]: 50%
effect on M-CSF production by the cultured monocytes ([2]; 1.0 μM Compound I, GM-CSF 20 ng/mL): no effect
decrease in M-CSF production ([2]; 5.0 μM, GM-CSF stimulated monocytes): 30%
effect on cell growth, IL-3 stimulated control cultures (FDC-cfms cells; 12 or 24 h, 0.5-5.0 μM Compound I): no Compound I-specific effects on cell growth; also recorded: No effect
Cell count, IL-3, 12 H (FDC-cfms cells; Compound I 0.5 μM): 131724 cells/mL
Cell count, IL-3, 24 H (FDC-cfms cells; Compound I 0.5 μM): 281975 cells/mL
Cell count, IL-3, 48 H (FDC-cfms cells; Compound I 0.5 μM): 1107666 cells/mL
Cell count, IL-3, 12 H (FDC-cfms cells; Compound I 1 μM): 126472 cells/mL
Cell count, IL-3, 24 H (FDC-cfms cells; Compound I 1 μM): 264007 cells/mL
Cell count, IL-3, 48 H (FDC-cfms cells; Compound I 1 μM): 1068150 cells/mL
Cell count, IL-3, 12 H (FDC-cfms cells; Compound I 5 μM): 106917 cells/mL
Cell count, IL-3, 24 H (FDC-cfms cells; Compound I 5 μM): 197435 cells/mL
Cell count, IL-3, 48 H (FDC-cfms cells; Compound I 5 μM): 682771 cells/mL
Cell count, IL-3, 12 H (FDC-cfms cells; Compound I […]): 131857 cells/mL
Cell count, IL-3, 24 H (FDC-cfms cells; Compound I […]): 247613 cells/mL
Cell count, IL-3, 48 H (FDC-cfms cells; Compound I […]): 940233 cells/mL
cell counts, M-CSF ([3]; 24 h, 5.0 μM Compound I): lower than seeded values
Cell count, M-CSF, 12 H ([3]; Compound I 0.5 μM): 133296 cells/mL
Cell count, M-CSF, 24 H ([3]; Compound I 0.5 μM): 339185 cells/mL
Cell count, M-CSF, 48 H ([3]; Compound I 0.5 μM): 1577777 cells/mL
Cell count, M-CSF, 12 H ([3]; Compound I 1 μM): 130010 cells/mL
Cell count, M-CSF, 24 H ([3]; Compound I 1 μM): 311035 cells/mL
Cell count, M-CSF, 48 H ([3]; Compound I 1 μM): 1362802 cells/mL
Cell count, M-CSF, 12 H ([3]; Compound I 5 μM): 68324 cells/mL
Cell count, M-CSF, 24 H ([3]; Compound I 5 μM): 20830 cells/mL
Cell count, M-CSF, 48 H ([3]; Compound I 5 μM): 20149 cells/mL
Cell count, M-CSF, 12 H ([3]; Compound I […]): 117025 cells/mL
Cell count, M-CSF, 24 H ([3]; Compound I […]): 174818 cells/mL
Cell count, M-CSF, 48 H ([3]; Compound I […]): 295134 cells/mL
